From patent publication US20210391038A1, “SPECIFICALLY-SHAPED CRYSTAL OF COMPOUND AND METHOD FOR PRODUCING SAME” (TOWA PHARMACEUTICAL CO., LTD., priority 2018, published 2021)
Where a name gives a salt, the structure may show the parent alone.

Test: Measurement of critical degree of supersaturation of spherulite
Format: physicochemical
Excerpt: “Supersaturated solution” in the present description means a solution in a state of containing a solute exceeding the solubility. As the degree of supersaturation, “degree of supersaturation” can be used. Regarding the degree of supersaturation, when the concentration (mass concentration (g/g)) of a compound dissolved in a supersaturated solution is defined as C and the solubility of the compound is defined as Cs, the degree of supersaturation S can be represented by the following formula: […]
“Critical degree of supersaturation” in the present description means the lowest degree of supersaturation required to obtain a specifically-shaped crystal. […] The value of a critical degree of supersaturation varies depending on the shape of a crystal. For example, all of values of a critical degree of supersaturation required to obtain a plate crystal, a critical degree of supersaturation required to obtain a needle crystal, and a critical degree of supersaturation required to obtain a spherulite are different. The critical degree of supersaturation required to obtain a spherulite is higher than the critical degree of supersaturation required to obtain a plate crystal or a needle crystal.
The actual measured value of the critical degree of supersaturation (S*) can be measured as follows:
(1) 100 particles are observed by SEM. (2) 5 to 10 particles whose shape is close to a desired specific shape are selected, and the shape is evaluated. In particular, when the desired specific shape is a sphere, the sphericity is evaluated. (3) Based on the evaluation index of the shape, whether the selected particles have the desired specific shape or not is determined. In particular, when the desired specific shape is a sphere, the case where the sphericity is 0.60 or more is determined as a spherulite. (4) The above-mentioned operation is performed for each sample having a different degree of supersaturation during crystallization, and the minimum value of a degree of supersaturation having the specifically-shaped particles is determined as the critical degree of supersaturation. The difference between the maximum value of a degree of supersaturation not having the specifically-shaped particles and the critical degree of supersaturation should be 20% or less.
The critical degree of supersaturation of a spherulite of ketotifen fumarate was determined as follows. To 2.0 g of ketotifen fumarate, 10 mL (5 v/w) of methanol was added, followed by reflux to completely dissolve. This solution was added dropwise to 50 mL of isopropanol at 20° C. to prepare a supersaturated solution of ketotifen fumarate. The degree of supersaturation of the supersaturated solution at the end of dropwise addition was 9.0. The supersaturated solution was crystallized. The crystal was collected by filtration, followed by drying under reduced pressure at 40° C., thus obtaining a crystal of ketotifen fumarate.
Similarly, when a substrate and a solvent different from those mentioned above are used, a plurality of samples having a different degree of supersaturation are prepared and crystallized, and then the critical degree of supersaturation of the spherulite was measured.

## COC(=O)[C@H](c1ccccc1Cl)N1CCc2sccc2C1 [Clopidogrel sulfate]
Entry 3, solvent 1 H2O, solvent 2 2-BuOH, solvent 2/solvent 1 ratio 222, crystallization 20 °C
  Critical degree of supersaturation S Experimental value: 9.7

## Cn1c(=O)c2[nH]cnc2n(C)c1=O.[Mg] [Theophylline magnesium salt]
  actual measured value of the critical degree of supersaturation: 3.5
Entry 28, solvent 1 MeOH, solvent 2 H2O, solvent 2/solvent 1 ratio 3, crystallization 0 °C
  Critical degree of supersaturation S Experimental value: 3.5
Entry 29, solvent 1 EtOH, solvent 2 H2O, solvent 2/solvent 1 ratio 3, crystallization 0 °C
  Critical degree of supersaturation S Experimental value: 3.9
Entry 30, solvent 1 Acetone, solvent 2 H2O, solvent 2/solvent 1 ratio 3, crystallization 0 °C
  Critical degree of supersaturation S Experimental value: 6.3
Entry 31, solvent 1 IPA, solvent 2 H2O, solvent 2/solvent 1 ratio 3, crystallization 0 °C
  Critical degree of supersaturation S Experimental value: 6.6

## COc1cccc(C2(O)CCCCC2CN(C)C)c1 (centres unmarked) [Tramadol hydrochloride]
  actual measured value of the critical degree of supersaturation: 4.2
Entry 36, solvent 1 MeOH, solvent 2 i-PrOAc, solvent 2/solvent 1 ratio 20, crystallization 10 °C
  Critical degree of supersaturation S Experimental value: 4.7
Entry 37, solvent 1 IPA, solvent 2 TBME, solvent 2/solvent 1 ratio 30, crystallization 10 °C
  Critical degree of supersaturation S Experimental value: 11.1
Entry 38, solvent 1 EtOH, solvent 2 TBME, solvent 2/solvent 1 ratio 30, crystallization 10 °C
  Critical degree of supersaturation S Experimental value: 22.4

## COc1ccc2[n-]c([S+]([O-])Cc3ncc(C)c(OC)c3C)nc2c1.COc1ccc2[n-]c([S+]([O-])Cc3ncc(C)c(OC)c3C)nc2c1.[Mg+2] (centres unmarked) [Esomeprazolc magnesium hydrate]
Entry 1, solvent 1 MeOH, solvent 2 H2O, solvent 2/solvent 1 ratio 1, crystallization 35 °C
  Critical degree of supersaturation S Experimental value: 1.4

## CN(C)CC/C=C1/c2ccccc2COc2ccc(CC(=O)O)cc21 [Olopatadine]
  actual measured value of the critical degree of supersaturation: 9.7
Entry 58, solvent 1 MeOH, solvent 2 EtOAc, solvent 2/solvent 1 ratio 20, crystallization 15 °C
  Critical degree of supersaturation S Experimental value: 9.7

## O=C(O)CCCN1CCC(O[C@@H](c2ccc(Cl)cc2)c2ccccn2)CC1.O=S(=O)(O)c1ccccc1 [Bepotastine besilate]
  actual measured value of the critical degree of supersaturation: 36.4
Entry 57, solvent 1 EtOH, solvent 2 AcOiPr, solvent 2/solvent 1 ratio 10, crystallization 0 °C
  Critical degree of supersaturation S Experimental value: 36.4

## Cc1cccc(C)c1NC(=O)CC12CCCN1CCC2.Cl [Pilsicainide hydrochloride anhydride]
  actual measured value of the critical degree of supersaturation: 27
Entry 35, solvent 1 IPA, solvent 2 Toluene, solvent 2/solvent 1 ratio 10, crystallization 5 °C
  Critical degree of supersaturation S Experimental value: 27

## N[C@@H](CCC(=O)N[C@@H](CS)C(=O)NCC(=O)O)C(=O)O [Glutathione]
  actual measured value of the critical degree of supersaturation: 18.7
Entry 47, solvent 1 H2O, solvent 2 EtOH, solvent 2/solvent 1 ratio 5, crystallization 20 °C
  Critical degree of supersaturation S Experimental value: 18.7

## N#C[C@@H]1CCCN1C(=O)CNC12CC3CC(CC(O)(C3)C1)C2 [Vildagliptin]
  actual measured value of the critical degree of supersaturation: 9.2
Entry 39, solvent 1 EtOH, solvent 2 TBME, solvent 2/solvent 1 ratio 10, crystallization 0 °C
  Critical degree of supersaturation S Experimental value: 9.2
Entry 40, solvent 1 EtOH, solvent 2 TBME, solvent 2/solvent 1 ratio 10, crystallization 10 °C
  Critical degree of supersaturation S Experimental value: 7
Entry 41, solvent 1 MEK, solvent 2 Toluene, solvent 2/solvent 1 ratio 10, crystallization 0 °C
  Critical degree of supersaturation S Experimental value: 8.5
Entry 42, solvent 1 IPA, solvent 2 TBME, solvent 2/solvent 1 ratio 10, crystallization 0 °C
  Critical degree of supersaturation S Experimental value: 11
Entry 43, solvent 1 IPA, solvent 2 TBME, solvent 2/solvent 1 ratio 10, crystallization 10 °C
  Critical degree of supersaturation S Experimental value: 11.6
Entry 44, solvent 1 IPA, solvent 2 TBME, solvent 2/solvent 1 ratio 10, crystallization 20 °C
  Critical degree of supersaturation S Experimental value: 11.9

## Nc1nc(CC(=O)Nc2ccc(CCNC[C@H](O)c3ccccc3)cc2)cs1 [Mirabegron]
  actual measured value of the critical degree of supersaturation: 5.6
Entry 48, solvent 1 H2O, solvent 2 MeOH, solvent 2/solvent 1 ratio 1.25, crystallization 0 °C
  Critical degree of supersaturation S Experimental value: 1.6
Entry 49, solvent 1 H2O, solvent 2 MeOH, solvent 2/solvent 1 ratio 1.25, crystallization 10 °C
  Critical degree of supersaturation S Experimental value: 3.2
Entry 50, solvent 1 MeOH, solvent 2 TBME, solvent 2/solvent 1 ratio 10, crystallization 0 °C
  Critical degree of supersaturation S Experimental value: 4
Entry 51, solvent 1 MeOH, solvent 2 TBME, solvent 2/solvent 1 ratio 10, crystallization 10 °C
  Critical degree of supersaturation S Experimental value: 4.3
Entry 52, solvent 1 EtOH, solvent 2 TBME, solvent 2/solvent 1 ratio 10, crystallization 0 °C
  Critical degree of supersaturation S Experimental value: 5.6
Entry 53, solvent 1 EtOH, solvent 2 TBME, solvent 2/solvent 1 ratio 10, crystallization 10 °C
  Critical degree of supersaturation S Experimental value: 5.4

## Cc1cc(N2CCN([C@@H]3CN[C@H](C(=O)N4CCSC4)C3)CC2)n(-c2ccccc2)n1 [Teneligliptin hydrobromide hydrate]
  actual measured value of the critical degree of supersaturation: 7.9
Entry 32, solvent 1 MeOH, solvent 2 1-BuOH, solvent 2/solvent 1 ratio 10, crystallization 0 °C
  Critical degree of supersaturation S Experimental value: 5.2
Entry 33, solvent 1 MeOH, solvent 2 1-BuOH, solvent 2/solvent 1 ratio 10, crystallization 20 °C
  Critical degree of supersaturation S Experimental value: 7.9
Entry 34, solvent 1 MeOH, solvent 2 1-BuOH, solvent 2/solvent 1 ratio 10, crystallization 40 °C
  Critical degree of supersaturation S Experimental value: 12.6

## CN1CCC(=C2c3ccccc3CC(=O)c3sccc32)CC1 [Ketotifen fumarate]
Entry 4, solvent 1 MeOH, solvent 2 IPA, solvent 2/solvent 1 ratio 5, crystallization 0 °C
  Critical degree of supersaturation S Experimental value: 2.5
Entry 5, solvent 1 MeOH, solvent 2 IPA, solvent 2/solvent 1 ratio 5, crystallization 50 °C
  Critical degree of supersaturation S Experimental value: 4
Entry 6, solvent 1 MeOH, solvent 2 2-BuOH, solvent 2/solvent 1 ratio 5, crystallization 0 °C
  Critical degree of supersaturation S Experimental value: 1.6
Entry 7, solvent 1 MeOH, solvent 2 2-BuOH, solvent 2/solvent 1 ratio 5, crystallization 20 °C
  Critical degree of supersaturation S Experimental value: 4.4
Methanol to isopropanol 1:5, temperature during crystallization 20° C.
  critical degree of supersaturation of a spherulite: 4.0

## CC[C@H]1OC(=O)[C@H](C)[C@@H](O[C@H]2C[C@@](C)(OC)[C@@H](O)[C@H](C)O2)[C@H](C)[C@@H](O[C@@H]2O[C@H](C)C[C@H](N(C)C)[C@H]2O)[C@](C)(OC)C[C@@H](C)C(=O)[C@H](C)[C@@H](O)[C@]1(C)O [Clarithromycin]
  actual measured value of the critical degree of supersaturation: 17
Entry 8, solvent 1 THF, solvent 2 H2O, solvent 2/solvent 1 ratio 25, crystallization 0 °C
  Critical degree of supersaturation S Experimental value: 11
Entry 9, solvent 1 THF, solvent 2 H2O, solvent 2/solvent 1 ratio 70, crystallization 0 °C
  Critical degree of supersaturation S Experimental value: 26
Entry 10, solvent 1 THF, solvent 2 H2O, solvent 2/solvent 1 ratio 75, crystallization 10 °C
  Critical degree of supersaturation S Experimental value: 17

## CN(C)CCC[C@@]1(c2ccc(F)cc2)OCc2cc(C#N)ccc21 [Escitalopram oxalate]
  actual measured value of the critical degree of supersaturation: 3.7
Entry 21, solvent 1 H2O, solvent 2 2-BuOH, solvent 2/solvent 1 ratio 30, crystallization 0 °C
  Critical degree of supersaturation S Experimental value: 2.8
Entry 22, solvent 1 H2O, solvent 2 2-BuOH, solvent 2/solvent 1 ratio 15, crystallization 0 °C
  Critical degree of supersaturation S Experimental value: 3.7
Entry 23, solvent 1 H2O, solvent 2 IPA, solvent 2/solvent 1 ratio 15, crystallization 0 °C
  Critical degree of supersaturation S Experimental value: 4

## CCCCCCOC(=O)N=C(N)c1ccc(NCc2nc3cc(C(=O)N(CCC(=O)OCC)c4ccccn4)ccc3n2C)cc1 [Dabigatran etexilate methanesulfonate]
  actual measured value of the critical degree of supersaturation: 4.3
Entry 24, solvent 1 MeOH, solvent 2 TBME, solvent 2/solvent 1 ratio 10, crystallization 20 °C
  Critical degree of supersaturation S Experimental value: 3.3
Entry 25, solvent 1 EtOH, solvent 2 EtOAc, solvent 2/solvent 1 ratio 10, crystallization 5 °C
  Critical degree of supersaturation S Experimental value: 2.9
Entry 26, solvent 1 EtOH, solvent 2 EtOAe, solvent 2/solvent 1 ratio 10, crystallization 20 °C
  Critical degree of supersaturation S Experimental value: 4.3
Entry 27, solvent 1 EtOH, solvent 2 EtOAc, solvent 2/solvent 1 ratio 10, crystallization 35 °C
  Critical degree of supersaturation S Experimental value: 5.2

## CC(C)[C@H](N)C(=O)OCCOCn1cnc2c(=O)[nH]c(N)nc21 [Valacyclovir hydrochloride]
Entry 56, solvent 1 H2O, solvent 2 2-BuOH, solvent 2/solvent 1 ratio 35, crystallization 10 °C
  Critical degree of supersaturation S Experimental value: 48.6
